Reference: patent US5374636A, “2,3-trans-disubstituted tropane compounds which have useful pharmaceutical utility” (NeuroSearch A/S, priority 1992, dated 1994)

Tests used:
[1] = test system: serotonine (5-hydroxythryptamine, 5-HT) reuptake; experiment: Serotonin (5-HT) reuptake inhibition; type: biochemical; details: in combination with dopamine reuptake inhibition
[2] = test system: abnormal stereotyped behaviour; experiment: Classification of the abnormal stereotyped behaviour (side effect); type: in vivo, rat
Text: Classification of the abnormal stereotyped behaviour.
Backward locomotion may occasionally be observed.
+=only stereotyped sniffing
++=stereotyped sniffing and episodic licking
+++=Continuous licking and/or biting gnawing

[3] = test system: reuptake of dopamine in synaptosomes of rat forebmin; experiment: Inhibition of reuptake of dopamine in synaptosomes of rat forebrain (3H-dopamine uptake); type: biochemical, rat (male Wistar); details: for IC50: rat forebrain synaptosomes, 3H-dopamine 1×10^-9 M, 10 min at 37° C., read-out: Dopamine reuptake inhibiting activity (IC50)
Method: Fresh whole forebmin (at 0°-4° C.) from male Wistar rats (150-200 g) is homogenized in a glass homogenizer with a teflon pestle in 20×volumes 0.32M sucrose. The homogenate is centrifuged at 1000×g (~2900 rpm) for 10 min. The pellet is discarded and the supernatant is used for uptake assays.
The samples are thoroughly mixed and incubated 10 min at 37° C. followed by 2 min at 0° C. After incubation the samples are poured directly onto Whatman GF/C glass fibre filters under suction and immediately washed with 2×5 ml ice-cold 0.9% saline (NaCI) buffer. To the filter is added 3 ml of scintillation fluid, and the amount of radioactivity on the filters is determined by conventional liquid scintillation counting.

[4] = test system: excitatory Iocomotor and rearing responses; experiment: Classification of behavioural excitatory locomotor and rearing responses (side effect); type: in vivo, rat (male SPF wistar)
Method: Male SPF wistar rats weighing 200-250 g were used for the gross behavioural studies. All rats were transferred the day before the experiments to individual cages made of wire netting (floor area 21×27 cm, height 16 cm) at a room temperature of 21°-23° C. […] The behavioural elements here classified as rearing (i.e. standing up on the hindlegs) and Iocomotor activities (i.e. forward running activities) were registered, and the maximum peak effects were classified according to the following rating scale:
0=non-existent or very infrequent
++=moderate in intensity and frequency
+++=very strong, continuous and intense

SMILES	serotonine (5-HT) reuptake inhibiting activity [1]	Activity (high intensity abnormal stereotyped behaviour) ([2]; 50 mg/kg i.p.)	dopamine reuptake inhibiting activity (in words) [3]	IC50 [3] [nM]	Activity (high intensity abnormal stereotyped behaviour) ([2]; 25 mg/kg i.p.)	Activity (excitatory locomotor and rearing responses, maximum peak effect) ([4]; 50 mg/kg i.p.)	side effects as measured by excitatory locomotor activity and rearing responses as well as abnormal stereotyped behaviour ([4]; every relevant dosing level tested)
CN1[C@H]2CC[C@@H]1[C@H](COc1ccc(Cl)cc1)[C@@H](c1ccc(F)cc1)C2.Cl [(1R,2R,3S)-2-(4-Chlorophenoxy-methyl)-3-(4-fluorophenyl)tropane, hydrochloride]	very potent serotonine (5-hydroxythryptamine, 5-HT) reuptake inhibiting activity	0	potent dopamine reuptake inhibiting activity	390			
COC(=O)[C@@H]1[C@@H](c2ccc3ccccc3c2)C[C@@H]2CC[C@H]1N2C [(1R,2R,3S)-2-carbomethoxy-3-(2-naphthyl)tropane]				100	0		
COC(=O)[C@@H]1[C@@H](c2ccc(Cl)c(Cl)c2)C[C@@H]2CC[C@H]1N2C [(1R,2R,3S)-2-carbomethoxy-3-(3,4-dichlorophenyl)tropane]		+++		16		+	
COC(=O)[C@@H]1[C@@H](c2ccc(F)cc2)C[C@@H]2CC[C@H]1N2C [trans isomer of Win 35,428, (1R,2R,3S)-2-carbomethoxy-3-(4-fluorophenyl)tropane]							essentially or totally devoid of side effects
